IC50 data for nine molecules are collected here from patent US20250018014A1, “METHOD FOR TREATING AND/OR PREVENTING REGNASE-1-RELATED DISEASE” (OSAKA UNIVERSITY, priority 2018, published 2025).

Structures are written as SMILES. Residues, ends and D or L forms follow the SMILES beside them.

For assay [1], the target named is T1, binding between IKKβ and full-length Regnase-1 (FL_Reg1) (Homo sapiens, UniProt Q5D1E8).
T1 construct: made in house; host or cells: Expi293 cells
T1 sequence (Q5D1E8 1-599): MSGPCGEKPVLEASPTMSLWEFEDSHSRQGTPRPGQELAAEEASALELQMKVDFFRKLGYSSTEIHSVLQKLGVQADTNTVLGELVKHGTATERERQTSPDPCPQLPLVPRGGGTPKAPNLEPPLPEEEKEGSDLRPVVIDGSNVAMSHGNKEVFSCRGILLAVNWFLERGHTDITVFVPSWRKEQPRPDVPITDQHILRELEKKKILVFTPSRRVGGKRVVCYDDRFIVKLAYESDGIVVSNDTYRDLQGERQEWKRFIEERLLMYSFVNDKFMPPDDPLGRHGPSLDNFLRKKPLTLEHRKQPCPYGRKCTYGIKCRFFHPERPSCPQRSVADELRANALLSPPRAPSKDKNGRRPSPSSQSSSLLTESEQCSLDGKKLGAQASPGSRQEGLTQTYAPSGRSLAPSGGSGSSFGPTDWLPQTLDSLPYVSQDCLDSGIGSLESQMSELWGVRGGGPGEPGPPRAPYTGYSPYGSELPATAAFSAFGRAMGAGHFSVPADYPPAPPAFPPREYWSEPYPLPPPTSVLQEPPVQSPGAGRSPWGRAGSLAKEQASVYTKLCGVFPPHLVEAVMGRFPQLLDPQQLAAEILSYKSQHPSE
The experiment in a line: Inhibition of kinase-Regnase-1 binding by the compounds (AlphaScreen), IKKβ. The conditions noted are these: Table 14; binding between IKKβ and Regnase-1; read-out: Binding inhibition FL_Reg1, 50% inhibition concentration (IKKβ). The method, boiled down: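 FLAG-tagged, biotin-acceptor-tagged full-length human Regnase-1 was expressed in Expi293 cells. It was mixed at 2.5 nM with compound, then 2.5 nM IKKβ or TBK1 was added for 2 h at room temperature. Binding was read with anti-FLAG acceptor and glutathione donor beads; IC50 came from dose-response inhibition relative to Regnase-1 alone and DMSO.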
For orientation: Alpha assays give light when donor and acceptor beads are brought close together.

For assay [2], the target named is T2, ΔCTD_Reg1 (amino acids 1 to 546 of human Regnase-1) phosphorylation by IKKβ (Homo sapiens, UniProt Q5D1E8).
T2 construct: made in house; host or cells: Expi293 cells
T2 sequence (Q5D1E8 1-546): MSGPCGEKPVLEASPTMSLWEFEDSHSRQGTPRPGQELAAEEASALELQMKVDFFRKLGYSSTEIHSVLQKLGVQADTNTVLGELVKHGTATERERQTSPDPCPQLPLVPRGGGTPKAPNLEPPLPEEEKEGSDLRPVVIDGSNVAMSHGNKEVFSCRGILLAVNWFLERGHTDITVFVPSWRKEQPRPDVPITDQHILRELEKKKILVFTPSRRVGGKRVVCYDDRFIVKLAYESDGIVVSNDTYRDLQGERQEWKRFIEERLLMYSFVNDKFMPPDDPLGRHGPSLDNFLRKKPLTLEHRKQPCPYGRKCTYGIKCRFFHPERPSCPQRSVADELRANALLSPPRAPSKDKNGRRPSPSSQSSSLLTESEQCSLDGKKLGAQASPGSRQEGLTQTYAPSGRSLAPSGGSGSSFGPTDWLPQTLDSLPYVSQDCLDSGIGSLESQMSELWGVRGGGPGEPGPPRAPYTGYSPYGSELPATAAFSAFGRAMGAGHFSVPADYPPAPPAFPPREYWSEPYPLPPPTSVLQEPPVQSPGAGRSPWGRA
The experiment in a line: Regnase-1 phosphorylation inhibition by compounds (AlphaScreen), IKKβ, CTD-deficient Regnase-1. The format is biochemical. As to conditions: Table 14; phosphorylation by IKKβ; read-out: Phosphorylation inhibition ΔCTD_Reg1, 50% inhibition concentration (IKKβ). As for the experimental part: Among the full-length human Regnase-1 sequence, the 1st to 546th amino acid sequence was prepared and made into a construct having a FLAG tag on the N-terminal side and a biotin ligase BirA recognition sequence on the C-terminal side (herein, a Regnase-1 lacking the C-terminal domain of Regnase-1 (amino acids 547 to 599 in the case of SEQ ID NO: 2) is referred to as “ΔCTD_Reg1”. “ΔCTD_Reg1” is different from “Regnase-1ΔCTD”, which is a C-terminal domain deletion variant resulting from a frameshift mutation caused by a 1 bp deletion at codon 517, as prepared in Example 13). In addition, the sequence from amino acids 301 to 599 of the full-length human Regnase-1 sequence was designated as C-terminal Regnase-1, and a construct having a FLAG tag on the N-terminal side and a recognition sequence for biotin ligase BirA on the C-terminal side was prepared (Reg1_301-599). The above-mentioned Regnase-1 was expressed in mammalian Expi293 cells, purified with FLAG M2 agarose, and isolated by gel filtration chromatography. When biotinylation was required, methods of nonpatent documents (BMC biotechnology, 2008,8,41; and Protein Science, 1999,8,921-929) were used.
Using Kinase assay buffer III (manufactured by SignalChem) supplemented with 2 mM DTT, 100 μM sodium vanadate, and 2 mM manganese chloride, kinase (IKKβ (manufactured by SignalChem) or TBK1 (manufactured by SignalChem)) and Regnase-1 were reacted in the presence of 10 μM ATP at room temperature for 2 hours to perform a phosphorylation reaction.
Phosphorylated Regnase-1 was detected by the AlphaScreen system. After each of the above-mentioned phosphorylated Regnase-1 antibodies was added and reacted at room temperature for one hour, anti-FLAG AlphaLISA Acceptor Beads (manufactured by PerkinElmer) and Protein A AlphaScreen Donor Beads (manufactured by PerkinElmer) were added, and EnVision (manufactured by PerkinElmer) was used to measure the excited luminescence. As a result, phosphorylated Regnase-1 produced by the phosphorylation reaction by kinase was specifically detected, and signals were confirmed to be enhanced in a manner dependent on Regnase-1 and kinase concentrations (FIG. 24).
After mixing 2 nM of the above-mentioned Regnase-1 and the compound, phosphorylated Regnase-1 produced by the phosphorylation reaction was detected by the AlphaScreen system. As the results, the inhibition rate was calculated from the signals obtained when adding the compound at each concentration, by defining the signal obtained with Regnase-1 alone to be 100% inhibition rate, and the signal obtained when the same amount of solvent (DMSO) is added in place of the compound as 0% inhibition rate. The 50% inhibition concentration (μM) was calculated from the obtained dose response curve (Table 11).

As to `CC[C@H](C)[C@@H]1NC(=O)[C@H](CC(N)=O)NC(=O)[C@H](Cc2ccc(O)cc2)NC(=O)[C@H](Cc2c[nH]c3ccccc23)NC(=O)[C@H](CO)NC(=O)[C@H](CC(N)=O)NC(=O)[C@H](CO)NC(=O)[C@H](Cc2ccccc2)NC(=O)[C@H](CC(N)=O)NC(=O)[C@H](C)N(C)C(=O)C[C@@H](C(=O)N2CCCC2)NC(=O)[C@H](Cc2c[nH]c3ccccc23)NC1=O` [PP16] (HELM PEPTIDE1{[meA].N.F.S.N.S.W.Y.N.I.W.D.[C1CCN([*:1])C1]}$PEPTIDE1,PEPTIDE1,1:R1-12:R3$$$V2.0), the IC50 in assay [1] was over 62.1 µM.

Turning to `CC[C@H](C)[C@@H]1NC(=O)[C@H](CCCCN)NC(=O)[C@H](Cc2ccc(O)cc2)NC(=O)[C@H](Cc2c[nH]c3ccccc23)NC(=O)[C@H](CO)NC(=O)[C@H](CO)NC(=O)[C@H]([C@@H](C)O)NC(=O)[C@@H]2CCCN2C(=O)[C@@H](C)N(C)C(=O)C[C@@H](C(=O)N2CCCC2)NC(=O)[C@H](Cc2c[nH]c3ccccc23)NC1=O` [PP23] (HELM PEPTIDE1{[C[C@H](C(=O)[*:2])N(C)[*:1]].P.T.S.S.W.Y.K.I.W.D.[C1CCN([*:1])C1]}$PEPTIDE1,PEPTIDE1,1:R1-11:R3$$$V2.0), the IC50 is 41.3 µM in assay [1] and over 62.1 µM in assay [2].

Regarding `CC[C@H](C)[C@@H]1NC(=O)[C@H](CC(N)=O)NC(=O)[C@H]([C@@H](C)CC)NC(=O)[C@H](Cc2ccc(O)cc2)NC(=O)[C@H](Cc2c[nH]c3ccccc23)NC(=O)[C@H](CO)NC(=O)[C@H](CC(N)=O)NC(=O)[C@H](C)N(C)C(=O)C[C@@H](C(=O)N2CCCC2)NC(=O)[C@H](Cc2c[nH]cn2)NC(=O)CNC(=O)[C@H](Cc2c[nH]c3ccccc23)NC1=O` [PP15] (HELM PEPTIDE1{[meA].N.S.W.Y.I.N.I.W.G.H.D.[C1CCN([*:1])C1]}$PEPTIDE1,PEPTIDE1,1:R1-12:R3$$$V2.0), the IC50 worked out at 33.7 µM in assay [1] and 31 µM in assay [2].

As to `CC[C@H](C)[C@@H]1NC(=O)[C@H](CCCCN)NC(=O)[C@H](Cc2ccc(O)cc2)NC(=O)[C@H](Cc2ccccc2)NC(=O)[C@H](C(C)C)NC(=O)[C@H](C)N(C)C(=O)C[C@@H](C(=O)N2CCCC2)NC(=O)[C@H](Cc2c[nH]c3ccccc23)NC(=O)[C@H](CC(N)=O)NC(=O)[C@H](Cc2ccc(O)cc2)NC(=O)[C@H](Cc2c[nH]c3ccccc23)NC1=O` [PP19] (HELM PEPTIDE1{[meA].V.F.Y.K.I.W.Y.N.W.D.[C1CCN([*:1])C1]}$PEPTIDE1,PEPTIDE1,1:R1-11:R3$$$V2.0), the IC50 in assay [1] worked out at 5.8 µM.

Take `CC[C@H](C)[C@@H]1NC(=O)[C@H](CO)NC(=O)[C@H](CCCNC(=N)N)NC(=O)[C@H](Cc2ccc(O)cc2)NC(=O)[C@H](Cc2ccc(O)cc2)NC(=O)[C@H](Cc2c[nH]c3ccccc23)NC(=O)[C@H](CO)NC(=O)[C@H](CCC(N)=O)NC(=O)[C@H](Cc2ccc(O)cc2)NC(=O)[C@H](CC(N)=O)NC(=O)[C@H](C)N(C)C(=O)C[C@@H](C(=O)N2CCCC2)NC(=O)[C@H](Cc2c[nH]c3ccccc23)NC1=O` [PP10] (HELM PEPTIDE1{[meA].N.Y.Q.S.W.Y.Y.R.S.I.W.D.[C1CCN([*:1])C1]}$PEPTIDE1,PEPTIDE1,1:R1-13:R3$$$V2.0): the IC50 in assay [1] amounted to 11.4 µM.

With `CC[C@H](C)[C@@H]1NC(=O)[C@H](CC(=O)O)NC(=O)[C@H](C)N(C)C(=O)C[C@@H](C(=O)N2CCCC2)NC(=O)[C@H](Cc2c[nH]c3ccccc23)NC(=O)[C@H](CC(=O)O)NC(=O)[C@H](Cc2c[nH]c3ccccc23)NC(=O)[C@H](Cc2ccc(O)cc2)NC(=O)[C@H](CC(=O)O)NC(=O)[C@H](Cc2ccccc2)NC(=O)[C@H](Cc2c[nH]c3ccccc23)NC1=O` [PP17] (HELM PEPTIDE1{[meA].D.I.W.F.D.Y.W.D.W.D.[C1CCN([*:1])C1]}$PEPTIDE1,PEPTIDE1,1:R1-11:R3$$$V2.0), the values for the IC50 in assay [1] and in assay [2] were under 0.06 µM and 0.3 µM, respectively.

With `CC[C@H](C)[C@@H]1NC(=O)[C@H](Cc2c[nH]c3ccccc23)NC(=O)[C@H](CCC(N)=O)NC(=O)[C@H](Cc2ccc(O)cc2)NC(=O)[C@H](C(C)C)NC(=O)[C@H](C)NC(=O)[C@H](Cc2ccc(O)cc2)NC(=O)[C@H](CCCNC(=N)N)NC(=O)[C@H](C)N(C)C(=O)C[C@@H](C(=O)N2CCCC2)NC(=O)[C@@H]2CCCN2C(=O)[C@H](Cc2ccc(O)cc2)NC1=O` [PP12] (HELM PEPTIDE1{[meA].R.Y.A.V.Y.Q.W.I.Y.P.D.[C1CCN([*:1])C1]}$PEPTIDE1,PEPTIDE1,1:R1-12:R3$$$V2.0), the IC50 in assay [1] was over 62.1 µM; in assay [2], 27 µM.

Regarding `CC[C@H](C)[C@@H]1NC(=O)[C@H](CCCNC(=N)N)NC(=O)[C@H](Cc2ccc(O)cc2)NC(=O)[C@H](Cc2c[nH]c3ccccc23)NC(=O)[C@H](CO)NC(=O)[C@H](CC(N)=O)NC(=O)[C@H](C)N(C)C(=O)C[C@@H](C(=O)N2CCCC2)NC(=O)[C@H](CC(C)C)NC(=O)CNC(=O)[C@H](Cc2c[nH]c3ccccc23)NC1=O` [PP22] (HELM PEPTIDE1{[meA].N.S.W.Y.R.I.W.G.L.D.[C1CCN([*:1])C1]}$PEPTIDE1,PEPTIDE1,1:R1-11:R3$$$V2.0), the IC50 in assay [1] was 26.8 µM.

Take `CC[C@H](C)[C@@H]1NC(=O)[C@H](CCCCN)NC(=O)[C@H](Cc2ccc(O)cc2)NC(=O)[C@H](Cc2c[nH]c3ccccc23)NC(=O)[C@H](CO)NC(=O)[C@H](CC(N)=O)NC(=O)[C@H](C)N(C)C(=O)C[C@@H](C(=O)N2CCCC2)NC(=O)[C@H](CC(C)C)NC(=O)CNC(=O)[C@H](Cc2c[nH]c3ccccc23)NC1=O` [PP21] (HELM PEPTIDE1{[meA].N.S.W.Y.K.I.W.G.L.D.[C1CCN([*:1])C1]}$PEPTIDE1,PEPTIDE1,1:R1-11:R3$$$V2.0): the IC50 in assay [1] worked out at 20.7 µM.
